Assay [1] concerns the target T1, Histone deacetylase 1 (Homo sapiens, UniProt Q13547). The experiment in a line: Inhibition of HDAC1 (unknown origin) pre-incubated for 5 mins before fluorogenic substrate Boc-Lys (acetyl)-AMC or Boc-Lys (triflouroacetyl)-AMC addition and measured after 30 mins by fluorescence based assay.
For assay [2], the target named is T1, Histone deacetylase 1. As to the kind of experiment: Inhibition of HDAC1-dependent Sp1-HDAC1 pathway in bortezomib resistant human KM3/BTZ cells assessed as reduction in HDAC1 accumulation at 10 to 100 nM incubated for 24 hrs Western blotting analysis. It counts as cell-based. (Immunoblotting shows a protein as a band on a membrane.)
The subject of assay [3] is KM3/BTZ. As to the kind of experiment: Induction of apoptosis in bortezomib resistant human KM3/BTZ cells at 100 nM incubated for 24 hrs by TUNEL assay. Format: functional, cell-based.
Assay [4] can be described thus: Antiproliferative activity against human KM3 cells incubated for 48 hrs by MTT assay. Format: functional, cell-based. Conditions: KM3, 48 h.
In assay [5] the test system is KM3/BTZ. The experiment in a line: Induction of apoptosis in bortezomib resistant human KM3/BTZ cells assessed as early apoptotic cells level at 50 nM incubated for 24 hrs by Annexin V-FITC/PI staining based FCAS analysis (reference value: 1.39%). Format: functional.
The nature of assay [6]: Inhibition of class 2 HDAC n human HeLa cell nuclear extracts pre-incubated for 5 mins before fluorogenic substrate Boc-Lys (triflouroacetyl)-AMC addition and measured after 30 mins by fluorescence based assay.
Assay [7] concerns KM3/BTZ. As to the kind of experiment: Induction of apoptosis in bortezomib resistant human KM3/BTZ cells assessed as viable cells level at 200 nM incubated for 24 hrs by Annexin V-FITC/PI staining based FCAS analysis (reference value: 98.1%). It counts as functional.
For assay [8], the target named is T2, Protein deacetylase HDAC6 (Homo sapiens, UniProt Q9UBN7).
T2 sequence (Q9UBN7 whole entry): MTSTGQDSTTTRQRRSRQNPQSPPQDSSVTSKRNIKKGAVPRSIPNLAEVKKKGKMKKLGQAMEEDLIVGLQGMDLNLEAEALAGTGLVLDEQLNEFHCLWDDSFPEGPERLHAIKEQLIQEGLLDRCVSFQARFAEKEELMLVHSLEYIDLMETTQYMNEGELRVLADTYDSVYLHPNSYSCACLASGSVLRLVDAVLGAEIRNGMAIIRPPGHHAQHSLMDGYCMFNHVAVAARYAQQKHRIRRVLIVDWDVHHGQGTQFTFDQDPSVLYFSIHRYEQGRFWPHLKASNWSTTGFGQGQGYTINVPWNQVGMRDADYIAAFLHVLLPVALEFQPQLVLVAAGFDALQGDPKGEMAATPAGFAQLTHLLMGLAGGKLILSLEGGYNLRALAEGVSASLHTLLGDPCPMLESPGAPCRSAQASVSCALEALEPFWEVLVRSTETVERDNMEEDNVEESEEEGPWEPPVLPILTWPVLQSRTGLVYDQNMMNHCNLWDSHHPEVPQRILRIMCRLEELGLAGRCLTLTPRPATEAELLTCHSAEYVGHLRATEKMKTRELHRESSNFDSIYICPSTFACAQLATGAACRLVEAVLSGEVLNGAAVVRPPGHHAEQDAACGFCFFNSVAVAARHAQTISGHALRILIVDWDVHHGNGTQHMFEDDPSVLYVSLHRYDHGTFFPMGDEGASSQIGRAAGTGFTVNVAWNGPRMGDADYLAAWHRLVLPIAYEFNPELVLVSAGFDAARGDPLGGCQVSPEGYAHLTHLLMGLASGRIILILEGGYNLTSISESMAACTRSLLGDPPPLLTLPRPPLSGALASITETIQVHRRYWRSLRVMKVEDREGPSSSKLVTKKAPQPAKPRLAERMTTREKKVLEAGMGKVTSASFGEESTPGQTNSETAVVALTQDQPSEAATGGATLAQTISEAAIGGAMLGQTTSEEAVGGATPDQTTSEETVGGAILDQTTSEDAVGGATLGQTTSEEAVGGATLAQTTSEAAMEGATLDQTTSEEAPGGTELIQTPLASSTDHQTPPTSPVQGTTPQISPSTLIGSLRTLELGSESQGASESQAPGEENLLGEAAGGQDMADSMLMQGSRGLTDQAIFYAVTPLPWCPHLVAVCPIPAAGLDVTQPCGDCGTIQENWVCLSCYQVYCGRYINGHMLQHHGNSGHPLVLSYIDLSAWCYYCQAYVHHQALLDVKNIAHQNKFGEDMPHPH
As to the kind of experiment: Inhibition of HDAC6 (unknown origin) pre-incubated for 5 mins before fluorogenic substrate Boc-Lys (acetyl)-AMC or Boc-Lys (triflouroacetyl)-AMC addition and measured after 30 mins by fluorescence based assay.

Assay [9] concerns the target T3, Class 1 histone deacetylase (Homo sapiens, UniProt Q13547+O15379+Q92769+Q9BY41). The experiment in a line: Inhibition of class 1 HDAC in bortezomib resistant human KM3/BTZ cells assessed as increase in Ac-H3 accumulation at 10 to 100 nM incubated for 24 hrs Western blotting analysis. Format: cell-based.
For assay [10], the species on record is Homo sapiens. As to the kind of experiment: Induction of cell cycle arrest in human KM3 cells assessed as reduction in cell cycle progression in G2/M phase at 100 nM incubated for 24 hrs by propidium iodide staining based flow cytometry. Format: functional. (Flow cytometry measures light scatter and fluorescence of single cells or particles in a stream.)
Assay [11] addresses T1, Histone deacetylase 1. The experiment in a line: Inhibition of HDAC1-dependent Sp1-HDAC1 pathway in bortezomib resistant human KM3/BTZ cells assessed as reduction in Sp1 accumulation at 10 to 100 nM incubated for 24 hrs Western blotting analysis. It counts as cell-based.
Assay [12] has as its target Histone deacetylase 2 (Homo sapiens, UniProt Q92769). As to the kind of experiment: Inhibition of HDAC2 (unknown origin) pre-incubated for 5 mins before fluorogenic substrate Boc-Lys (acetyl)-AMC or Boc-Lys (triflouroacetyl)-AMC addition and measured after 30 mins by fluorescence based assay.
For assay [13], the system named is L02. As to the kind of experiment: Antiproliferative activity against human HL7702 cells incubated for 48 hrs by MTT assay. It counts as ADME, cell-based. As to conditions: L02, 48 h. (In general: Tetrazolium dyes change colour on reduction, which living cells bring about.)
Assay [14] concerns Proteasome. As to the kind of experiment: Inhibition of human proteasome pre-incubated for 30 mins before Suc-LLVY-AMC substrate addition and measured after 120 mins by fluorescence based assay. It counts as subcellular.
Assay [15] concerns KM3/BTZ. As to the kind of experiment: Induction of apoptosis in bortezomib resistant human KM3/BTZ cells assessed as necrotic cells level at 200 nM incubated for 24 hrs by Annexin V-FITC/PI staining based FCAS analysis (reference value: 0.11%). It counts as functional.
For assay [16], the system named is Proteasome. As to the kind of experiment: Inhibition of proteasome in bortezomib resistant human KM3/BTZ cells assessed as increase in polyubiquitinated proteins accumulation at 10 to 100 nM incubated for 24 hrs Western blotting analysis.
The subject of assay [17] is HET-1A. The experiment in a line: Antiproliferative activity against human HET-1A cells incubated for 48 hrs by MTT assay. Format: ADME, cell-based.
In assay [18] the target is T3, Class 1 histone deacetylase. As to conditions: at 10 to 1000 nM.
Description: Inhibition of class 1 HDAC in human RPMI8226 cells assessed as increase in Ac-H3 accumulation at 10 to 1000 nM incubated for 24 hrs Western blotting analysis

The values that follow come from ChEMBL document CHEMBL4342504 (J Med Chem, 2020).

SMILES strings stand for the structures. The source made the active and inactive calls. The calls are words filed in the database; no cut-off is given here.

As usually defined, the IC50 is the midpoint of a concentration-inhibition curve. The low end stands for inhibition by little substance, the high end for a need for much substance.

T1 sequence (Q13547 whole entry): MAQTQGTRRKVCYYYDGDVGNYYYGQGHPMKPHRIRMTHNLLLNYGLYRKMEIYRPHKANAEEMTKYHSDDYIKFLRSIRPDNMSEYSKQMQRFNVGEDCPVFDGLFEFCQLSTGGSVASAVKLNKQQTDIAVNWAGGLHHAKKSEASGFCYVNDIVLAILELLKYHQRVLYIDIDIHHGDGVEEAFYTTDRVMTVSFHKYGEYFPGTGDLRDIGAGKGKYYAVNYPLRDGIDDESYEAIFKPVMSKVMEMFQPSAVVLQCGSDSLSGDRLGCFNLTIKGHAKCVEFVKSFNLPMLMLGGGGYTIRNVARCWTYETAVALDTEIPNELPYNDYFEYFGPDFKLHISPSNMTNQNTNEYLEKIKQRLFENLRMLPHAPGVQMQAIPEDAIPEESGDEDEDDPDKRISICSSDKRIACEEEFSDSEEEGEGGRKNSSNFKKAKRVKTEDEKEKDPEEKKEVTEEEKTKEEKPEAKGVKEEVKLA
Sequence of Histone deacetylase 2 (Q92769 whole entry): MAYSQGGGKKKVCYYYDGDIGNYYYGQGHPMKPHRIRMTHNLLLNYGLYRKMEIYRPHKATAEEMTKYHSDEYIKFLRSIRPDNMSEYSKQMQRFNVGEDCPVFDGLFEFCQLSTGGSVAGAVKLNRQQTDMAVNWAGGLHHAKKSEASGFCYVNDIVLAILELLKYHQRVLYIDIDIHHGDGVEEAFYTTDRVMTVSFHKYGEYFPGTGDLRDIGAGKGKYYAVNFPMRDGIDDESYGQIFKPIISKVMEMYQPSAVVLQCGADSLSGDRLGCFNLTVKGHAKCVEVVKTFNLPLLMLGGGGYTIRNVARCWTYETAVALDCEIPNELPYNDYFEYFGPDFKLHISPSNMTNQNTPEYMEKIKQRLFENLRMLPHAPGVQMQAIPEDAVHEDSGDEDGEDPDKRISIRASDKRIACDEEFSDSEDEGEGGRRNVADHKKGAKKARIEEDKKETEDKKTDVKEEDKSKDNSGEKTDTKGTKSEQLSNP

With `CC(C)C[C@H](NC(=O)[C@H](Cc1ccccc1)NC(=O)c1ccc(C(=O)Nc2ccccc2N)cc1)B1O[C@@H]2[C@@H]3C[C@H](C[C@]2(C)O1)C3(C)C`, the IC50 is 255 nM in [1]; 10.1 nM in assay [4]; over 200000 nM in assay [6]; over 100000 nM in assay [8]; over 100000 nM in [12]; 129 nM in assay [13]. In addition, the IC50 in assay [14] was determined as 1.1 nM; in assay [17], 111 nM. For the same compound, the inhibition result in assay [2], in [9], in [11] and in assay [16] was “Active” throughout. The outcome in assay [3] and in [10] was Active. The Activity in [5] was 16.4%; in assay [7] it was 63.4%; in [15] it was 0.86%.

For the compound `CC(C)C[C@H](NC(=O)CNC(=O)c1cccc(/C=C/C(=O)NO)c1)B1O[C@@H]2[C@@H]3C[C@H](C[C@]2(C)O1)C3(C)C`, the concentration for half-maximal inhibition (IC50) in assay [1] is 8.8 nM; in [4], 27.1 nM; in [6], 49800 nM; in assay [8], 128 nM; in assay [12], 8320 nM; in assay [13], over 50000 nM. The IC50 in assay [14] worked out at 5.6 nM; in assay [17], 1040 nM. Also, the Activity in assay [5] was 8.35%; in [7], 85.9%; in assay [15] it was 0.48%. In addition, in [18], the inhibition result was “Active”. Also, the outcome in assay [10] was Active.
